Assays:
[1] = system: panel of human cancer (HT-29, DLD-1, HCT116 p53^+/+ and p53^−/−, PSN1, MiaPaCa2, BxPC3, A549, H460, GBM1) and non-cancer cell lines (ARPE-19, MCF10A, NP1); experiment: Chemosensitivity of a panel of human cancer and non-cancer cell lines (MTT, 96 h); type: cell-based; conditions: cancer versus non-cancer cells
Protocol: FIG. 7. Chemosensitivity response of a panel of human cancer and non-cancer cell lines to 96 h continuous exposure to self-assembling test compounds. a, The potency of compounds tested against cancer (HT-29, DLD-1, HCT116 p53^+/+ and […], PSN1, MiaPaCa2, BxPC3, A549, H460 and GBM1) and non-cancer cells (ARPE-19, MCF10A and NP1). Each value represents the mean IC50±standard deviation from a minimum of three independent experiments. b,c, The selectivity index (SI) for [L2Cu3]^6+ (b) and [L2Zn3]^6+ (c) for the indicated cancer cell lines; SI is defined as the mean IC50 against the particular non-cancer cell line model divided by the mean IC50 against the particular cancer cell line. […] As the SI value is calculated using the mean IC50 values, experimental error is not included in these figures. d,e, IC50 values for the clinically approved platinates (cisplatin, oxaliplatin and carboplatin) and [L2Mn3]^6+ and the corresponding SI results.
All cell lines used were maintained at low passage in antibiotic-free media and were obtained from ATCC (LGC Standards, Middlesex, UK) unless otherwise stated (Methods). HT29, DLD-1, HCT116 p53^+/+ and HCT116 p53^−/− are all colorectal adenocarcinoma cell lines derived from different individuals and harbor different combinations of oncogenic lesions (except for the HCT116 isogenic cancer cell clones that are genetically identical except for p53 status). PSN-1, BxPC-3 and MiaPaCa2 are pancreatic carcinoma cell lines and A549 and H460 are lung carcinoma cell lines. HT29, DLD-1, PSN-1, BxPC-3, A549 and H460 cell lines were cultured in RPMI-1640 growth media (Sigma) containing 2 mM L-glutamine, 1 mM sodium pyruvate and 10% fetal bovine serum (FBS). HCT116 (p53^+/+ and p53^−/−) and MiaPaCa2 cell lines were cultured in Dulbecco's Modified Eagle's Medium (Sigma), 2 mM L-glutamine and 10% FBS. The ARPE-19 retinal epithelial non-cancer cell line (Dunn et al., 1996) was cultured in DMEM/F12 media (Gibco), 2 mM L-glutamine, 1 mM sodium pyruvate and 10% FBS. The MCF10A non-cancerous human breast epithelial cell line was cultured in Minimal Essential Media Eagle (Sigma), 2 mM L-glutamine, 1 mM sodium pyruvate, 10% FBS and 1×non-essential amino acids (NEAA). NP1 and GBM1 cells were cultured on plasticware coated with poly-L-ornithine (5 μg/ml) and laminin (2.4 μg/ml) (Polson et al., 2018; Da Silva et al., 2019). […]
[L2M3]^6+ and all the other self-assembling complexes were freshly formed by adding DMSO to individual components mixing together by pipetting. […] Media and MTT were removed and formazan crystals were dissolved in 150 μl of DMSO and the absorbance of the resulting solution determined at 540 nm. […]

[2] = Phosphatase activity: hydrolysis of 4-nitrophenyl phosphate; conditions: UV-Vis spectroscopy, after 24 hrs
Excerpt: Only [L2Zn3(PO4)]^3+ was observed, coupled with a rapid yellowing of the solution due to the formation of 4-nitrophenolate.
The rate of substrate hydrolysis is also dependent upon the metal used in the self-assembly process.

[3] = system: HCT116 p53^−/− cancer cells; experiment: Autophagy (CYTO-ID staining, confocal); type: cell-based, human; conditions: 3.125 μM, 40 h
Protocol: (§1) FIG. 17. The effects of [L2Cu3]^6+, [L2Zn3]^6+ and [L2Mn3]^6+ on cellular vacuole formation and autophagy in the HCT116 p53^−/− cancer cells. Representative confocal images are shown of HCT116 p53^−/− cancer cells following 40 h treatment with vehicle control or 3.125 μM [L2Cu3]^6+, [L2Zn3]^6+, or [L2Mn3]^6+.
(§2) Autophagy studies: The effects of 3.125 μM [L2Cu3]^6+, [L2Zn3]^6+ and [L2Mn3]^6+ treatments (40 h) on the induction of cellular vacuoles and autophagy in the HCT116 p53^−/−, HCT116 p53^+/+ and ARPE19 cells are presented in FIGS. 17-19 with representative cell images shown. […] In the ARPE19 cells, levels of autophagy were low with all treatments and similar to basal levels in control-treated cells (FIG. 19).

[4] = system: HCT116 p53^+/+ cancer cells; experiment: Autophagy (CYTO-ID staining, confocal); type: cell-based, human; conditions: 3.125 μM, 40 h
Protocol: as §1, with “18.” for “17.”, “p53^+/+” for “p53^−/−”
as §2

ARPE19 non-cancer cells = experiment: Cellular ATP levels; type: cell-based, human; conditions: 100 μM, 20 h
Protocol: FIG. 20. The effects of [L2Cu3]^6+, [L2Zn3]^6+ and [L2Mn3]^6+ on cellular ATP levels in the ARPE19 non-cancer and HCT116 p53^+/+ cancer cells. The effects of 20 h treatment with the indicated concentrations of [L2Cu3]^6+, [L2Zn3]^6+, or [L2Mn3]^6+ on total cellular levels of ATP compared to levels in vehicle control-treated ARPE19 or HCT116^+/+ cells. n=3 biological repeats, students t-test (p values).
Cellular ATP studies: The effects of 20 h treatment with a range of different concentrations of [L2Cu3]^6+, [L2Zn3]^6+ and [L2Mn3]^6+ on total cellular ATP levels in HCT116 p53^+/+ and ARPE19 cells are presented in FIG. 20. Differential effects are observed depending on the metal in the complex, with [L2Mn3]^6+ having the most profound effects on both the HCT116 p53^+/+ cancer and ARPE19 non-cancer cells. 6.25 μM [L2Mn3]^6+ treatment for 20 h reduced ATP levels in the HCT116 p53^+/+ cancer cells to <50% with ATP levels declining less in the ARPE19 non-cancer cells but reaching ˜40% with 100 μM [L2Mn3]^6+ treatment. […] Effects of [L2Cu3]^6+ on ATP levels was much less, with ATP levels in the HCT116 cells reduced to <50% only at the highest concentration of 100 μM.

## [Mn+2].[Mn+2].[Mn+2].c1ccc(-c2csc(NCCN(CCNc3nc(-c4ccccn4)cs3)CCNc3nc(-c4ccccn4)cs3)n2)nc1.c1ccc(-c2csc(NCCN(CCNc3nc(-c4ccccn4)cs3)CCNc3nc(-c4ccccn4)cs3)n2)nc1 [[L2Mn3]^6+]
[1]
  preferential selectivity towards cancer cells: ~2 fold
[2]
  phosphate hydrolysed compared with the Zn^2+ species: three times more phosphate
[3]
  induction of autophagy: most pronounced
[4]
  induction of autophagy: evident
ARPE19 non-cancer cells
  ATP levels compared to vehicle control: ~40%

Reference: patent US20230322815A1, “NOVEL COMPOUNDS AND THERAPEUTIC USES THEREOF” (University of Huddersfield, priority 2020, published 2023)
